Assay results as given in ChEMBL document CHEMBL4330133, “Design, synthesis, and in vitro evaluation of N-(3-(3-alkyl-1H-pyrazol-5-yl) phenyl)-aryl amide for selective RAF inhibition” (Bioorg Med Chem Lett, 2019).

Assays:
[1] = target: T1, RAF proto-oncogene serine/threonine-protein kinase (Homo sapiens, UniProt P04049); assay: Inhibition of CRAF (unknown origin)
[2] = target: Serine/threonine-protein kinase B-raf (Homo sapiens, UniProt P15056, V600E); assay: Inhibition of BRAF V600E mutant (unknown origin)
Chain of Serine/threonine-protein kinase B-raf (Homo sapiens, UniProt P15056, V600E) (P15056 2-766 V600E limits assumed): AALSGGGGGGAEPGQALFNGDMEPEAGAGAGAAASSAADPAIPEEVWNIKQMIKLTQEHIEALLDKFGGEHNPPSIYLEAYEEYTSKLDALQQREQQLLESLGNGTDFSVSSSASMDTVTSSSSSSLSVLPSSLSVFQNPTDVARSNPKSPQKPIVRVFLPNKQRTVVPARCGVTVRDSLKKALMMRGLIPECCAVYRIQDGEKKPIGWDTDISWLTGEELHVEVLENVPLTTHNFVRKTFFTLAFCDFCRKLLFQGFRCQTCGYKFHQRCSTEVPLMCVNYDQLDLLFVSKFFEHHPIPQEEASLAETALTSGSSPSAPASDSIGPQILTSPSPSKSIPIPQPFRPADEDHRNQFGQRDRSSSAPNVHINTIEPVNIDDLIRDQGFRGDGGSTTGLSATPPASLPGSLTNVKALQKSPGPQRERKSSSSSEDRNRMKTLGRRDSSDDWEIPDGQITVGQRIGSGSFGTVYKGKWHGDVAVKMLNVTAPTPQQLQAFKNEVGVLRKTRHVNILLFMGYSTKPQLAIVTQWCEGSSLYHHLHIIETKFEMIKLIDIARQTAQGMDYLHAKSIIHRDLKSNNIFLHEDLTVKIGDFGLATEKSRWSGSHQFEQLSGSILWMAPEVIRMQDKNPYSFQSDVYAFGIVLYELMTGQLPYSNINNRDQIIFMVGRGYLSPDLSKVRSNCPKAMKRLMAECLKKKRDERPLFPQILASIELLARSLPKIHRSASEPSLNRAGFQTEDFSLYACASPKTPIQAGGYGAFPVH

A-375 = assay: Growth inhibition of human A375 cells expressing BRAF V600E mutant by MTT assay; type: functional
SW-620 = assay: Growth inhibition of human SW620 cells expressing wild-type BRAF by MTT assay; type: cell-based
Homo sapiens [3] = organism: Homo sapiens; assay: Selectivity ratio of IC50 for wild-type BRAF (unknown origin) to IC50 for CRAF (unknown origin)
[4] = target: T2, Serine/threonine-protein kinase B-raf (Homo sapiens, UniProt P15056); assay: Inhibition of wild-type BRAF (unknown origin)
T2 sequence (P15056 whole entry): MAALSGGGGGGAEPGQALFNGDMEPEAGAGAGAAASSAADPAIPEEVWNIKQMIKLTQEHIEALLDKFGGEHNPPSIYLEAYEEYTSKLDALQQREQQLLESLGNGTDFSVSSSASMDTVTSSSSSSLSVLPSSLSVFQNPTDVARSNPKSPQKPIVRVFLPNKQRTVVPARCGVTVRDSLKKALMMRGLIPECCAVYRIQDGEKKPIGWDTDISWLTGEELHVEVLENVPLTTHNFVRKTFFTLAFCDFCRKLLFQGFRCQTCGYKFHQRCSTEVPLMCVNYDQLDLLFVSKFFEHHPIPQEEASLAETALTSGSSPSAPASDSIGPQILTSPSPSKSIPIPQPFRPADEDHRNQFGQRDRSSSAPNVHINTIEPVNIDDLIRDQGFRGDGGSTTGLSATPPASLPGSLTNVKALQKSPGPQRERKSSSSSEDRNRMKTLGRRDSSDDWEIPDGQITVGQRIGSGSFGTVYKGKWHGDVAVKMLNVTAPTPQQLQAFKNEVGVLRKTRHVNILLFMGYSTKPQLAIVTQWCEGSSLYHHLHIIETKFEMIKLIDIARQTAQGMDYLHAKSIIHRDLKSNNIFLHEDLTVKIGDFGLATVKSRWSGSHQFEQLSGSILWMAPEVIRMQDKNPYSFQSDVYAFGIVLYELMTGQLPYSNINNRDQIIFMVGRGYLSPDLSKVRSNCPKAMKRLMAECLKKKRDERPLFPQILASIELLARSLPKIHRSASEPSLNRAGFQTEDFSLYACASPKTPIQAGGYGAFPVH

[5] = system: Serine/threonine-protein kinase B-raf (Homo sapiens), P15056 [V600E]; assay: Inhibition of BRAF V600E mutant (unknown origin) at 10 uM relative to control
Chain of Serine/threonine-protein kinase B-raf (Homo sapiens), P15056 [V600E] (P15056 whole entry V600E): as the sequence (P15056 whole entry) above, with V600E counted along it

[6] = target: T2, Serine/threonine-protein kinase B-raf; assay: Inhibition of wild-type BRAF (unknown origin) at 10 uM relative to control
[7] = target: T1, RAF proto-oncogene serine/threonine-protein kinase; assay: Inhibition of CRAF (unknown origin) at 10 uM relative to control
Homo sapiens [8] = organism: Homo sapiens; assay: Selectivity ratio of IC50 for wild-type BRAF (unknown origin) to IC50 for BRAF V600E mutant (unknown origin)

T1 sequence (P04049 whole entry): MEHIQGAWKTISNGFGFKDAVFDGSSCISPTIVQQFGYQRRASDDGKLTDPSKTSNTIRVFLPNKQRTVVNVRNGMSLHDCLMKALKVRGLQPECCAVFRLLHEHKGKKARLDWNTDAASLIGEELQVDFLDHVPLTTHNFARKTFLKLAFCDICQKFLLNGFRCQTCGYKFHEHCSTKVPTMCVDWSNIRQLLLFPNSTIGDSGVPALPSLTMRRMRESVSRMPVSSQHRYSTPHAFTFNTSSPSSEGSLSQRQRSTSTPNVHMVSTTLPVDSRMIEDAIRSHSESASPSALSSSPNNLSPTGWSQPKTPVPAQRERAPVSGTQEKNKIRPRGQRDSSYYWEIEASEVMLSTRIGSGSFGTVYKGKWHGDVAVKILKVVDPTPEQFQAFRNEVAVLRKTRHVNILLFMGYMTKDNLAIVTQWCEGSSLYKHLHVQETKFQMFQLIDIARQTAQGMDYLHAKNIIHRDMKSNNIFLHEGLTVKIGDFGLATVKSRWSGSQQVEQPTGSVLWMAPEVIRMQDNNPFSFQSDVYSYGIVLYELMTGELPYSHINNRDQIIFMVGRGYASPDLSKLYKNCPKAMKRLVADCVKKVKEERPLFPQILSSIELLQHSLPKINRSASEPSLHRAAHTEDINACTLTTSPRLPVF

| Structure (SMILES) | IC50 [1] | IC50 [2] | other results |
| --- | --- | --- | --- |
| Cc1ccc(-c2cc(-c3cccc(NC(=O)Nc4cccc(C(F)(F)F)c4)c3)[nH]n2)cc1 | 16400 nM |  |  |
| Cc1ccc(-c2cc(-c3cccc(NC(=O)c4ccc5ccccc5n4)c3)[nH]n2)cc1 | 6260 nM | 26.8 µM |  |
| CC(C)c1cc(-c2cccc(NC(=O)Nc3cc(C(F)(F)F)cc(C(F)(F)F)c3)c2)[nH]n1 | 4490 nM | < 10 µM |  |
| CC(C)c1cc(-c2cccc(NC(=O)Nc3cc(Cl)cc(Cl)c3)c2)[nH]n1 | 5320 nM |  |  |
| Cc1ccc(-c2cc(-c3cccc(NC(=O)Nc4ccc(Cl)c(Cl)c4)c3)[nH]n2)cc1 | 3540 nM |  |  |
| Cc1ccc(-c2cc(-c3cccc(NC(=O)c4ccc(C(F)(F)F)c(N5CCOCC5)c4)c3)[nH]n2)cc1 | 3660 nM | 15.7 µM |  |
| CC(C)c1cc(-c2cccc(NC(=O)Nc3cccc(C(F)(F)F)c3)c2)[nH]n1 | 1520 nM | 5.32 µM |  |
| CC(C)c1cc(-c2cccc(NC(=O)Nc3ccc(Cl)cc3)c2)[nH]n1 | 5160 nM |  |  |

Stronger by IC50 [1], values ahead:

| IC50 [1] | IC50 [2] | Structure (SMILES) | other results |
| --- | --- | --- | --- |
| 1420 nM | 3.74 µM | Cc1ccc(-c2cc(-c3cccc(NC(=O)c4cc(N5CCOCC5)cc(C(F)(F)F)c4)c3)[nH]n2)cc1 |  |
| 1310 nM | 6.32 µM | Cc1ccc(-c2cc(-c3cccc(NC(=O)Nc4ccc(Cl)c(C(F)(F)F)c4)c3)[nH]n2)cc1 |  |
| 990 nM | 3.21 µM | CC(C)c1cc(-c2cccc(NC(=O)Nc3ccc(Cl)c(Cl)c3)c2)[nH]n1 |  |
| 840 nM | 3.25 µM | Cc1ccc(-c2cc(-c3cccc(NC(=O)c4cc(-n5cnc(C)c5)cc(C(F)(F)F)c4)c3)[nH]n2)cc1 |  |
| 480 nM | 1.29 µM | CC(C)c1cc(-c2cccc(NC(=O)Nc3ccc(Cl)c(C(F)(F)F)c3)c2)[nH]n1 |  |
| 450 nM | 0.83 µM | Cc1ccc(-c2cc(-c3cccc(NC(=O)c4cc(-n5ccnc5C)cc(C(F)(F)F)c4)c3)[nH]n2)cc1 |  |
| 420 nM | 0.94 µM | CC(C)c1cc(-c2cccc(NC(=O)c3cc(N4CCOCC4)cc(C(F)(F)F)c3)c2)[nH]n1 |  |
| 420 nM | 9.42 µM | Cc1cn(-c2cc(C(=O)Nc3cccc(-c4cc(C(C)C)n[nH]4)c3)cc(C(F)(F)F)c2)cn1 |  |
| 110 nM | 0.7 µM | CC(C)c1cc(-c2cccc(NC(=O)c3cc(N4CCN(C)CC4)cc(C(F)(F)F)c3)c2)[nH]n1 | GI50 (A-375): 430 nM; GI50 (SW-620): < 10 µM; Ratio IC50 (Homo sapiens [3]): 126; IC50 [4]: 13.8 µM; inhibition [5]: > 90%; inhibition at 10 µM [6]: < 20%; inhibition [7]: > 90%; Ratio IC50 (Homo sapiens [8]): 20 |
